Measured values published in patent publication US20040213755A1, “Compositions and methods for reducing odor” (priority 2000, published 2004).

Tests used:
[1] = GC headspace analysis of odor emitting compound; conditions: 500 μL of 0.1% solution in water; % of control; 0% = complete removal
Experimental: (§1) The first odor reducing composition of the invention was 89% L-aspartic acid, 1% ZnO, and 10% Smellrite® zeolite (Invention #1). The second odor reducing composition of the invention was 88% L-aspartic acid, 2% ZnO, and 10% Smellrite® zeolite (Invention #2). The odor emitting compounds were tested neat, and triethylamine (0.1%), dimethylsulfide (0.1%), and isovaleric acid (0.82%) were also tested as solutions in water.
(§2) In the tests using the water solutions of the odor emitting compounds, 500 μL of the solutions were used for all samples.
(§3) Samples were prepared using 20 mL serum bottles with septum caps, and gas tight syringes were used to sample the headspace in the serum bottles. The sample was weighed into the serum bottle, the odor emitting compounds were added, and the sample bottles capped. The sample and the odor emitting compound in the serum bottle was mixed in each case. The serum bottle was then allowed to stand for 30 minutes and a 100 μL sample was taken from headspace of the serum bottle using a gas tight syringe and then injected into a gas chromatograph (GC) for analysis.
(§4) The GC analysis was performed using a H—P 5890-11 GC with a FID detector and a Split/Splitless injector, and a H—P 3396 integrator. The column used was a capillary H—P Ultra-2 (50 m×0.32 mm×0.52 μm). The GC conditions used were: injector temperature=300° C., detector temperature=330° C., oven temperature program=70° C. initial hold for 4 min., raise temperature 7° C./min. to 235° C., hold at 235° C. for 4 min. with total run length of 31.6 min. The split was turned off at injection and turned on after 30 seconds.
(§5) Complete removal of odor is represented as 0% and the control is 100%.

[2] = GC headspace analysis of odor emitting compound; conditions: 500 μL of 0.82% solution in water; % of control; 0% = complete removal
Experimental: as §1, §2, §3, §4, §5

[3] = GC headspace analysis of odor emitting compound; conditions: 500 μL of 0.1% solution in water; % of control; 0% = complete removal; remark: listed apart in the source
Experimental: as §1, §2, §3, §4, §5

| SMILES | % Odor, Dimethylsulfide (0.1% in water) [1] [%] | % Odor, Isovaleric acid (0.82% in water) [2] [%] | % Odor, Triethylamine (0.1% in water) [3] [%] |
| --- | --- | --- | --- |
| O=C([O-])O.[Na+] [Baking soda, sodium bicarbonate] | 93.6 | 8.7 | 19. |
| N[C@@H](CC(=O)O)C(=O)O [L-aspartic acid] | 82.2 | 13.9 | 0 |
| [O]=[Zn] [Zinc oxide, zinc oxide] | 96.4 | 0 | 79.3 |
